Test results reported in US20230346784A1 (priority 2020, published 2023).
Converted amounts (≈) assume the structure as drawn. “Also recorded” adds a separate entry of the source.

What was measured:
APH = APH inhibition / IC50 threshold used with simulated concentrations (FIG. 11); parameters: species or system human; conditions: dotted line in FIG. 11, serum ALXN2040 concentration
TF1PIGAnull cells = type: cell-based, human
[1] = test system: C5b-9 deposition on TF1PIGAnull cells; type: cell-based, human
[2] = test system: C3c deposition on TF1PIGAnull cells; type: cell-based, human
[3] = test system: SARS-CoV-2 spike proteins binding to TF1PIGAnull cells; assay: Flow cytometry of coronavirus protein binding to TF1PIGAnull cells (heparan sulfate blockade, sialidase treatment); parameters: species or system human; conditions: sulfate sodium salt; for binding of S1 subunit to TF1PIGAnull cells: 5 μg/mL His-tagged S1 co-incubated with 2 mg/mL heparan sulfate solution; for binding of S2 subunit to TF1PIGAnull cells: 5 μg/mL His-tagged S2 co-incubated with 2 mg/mL heparan sulfate solution

CC(=O)c1nn(CC(=O)N2C[C@H](F)C[C@H]2C(=O)Nc2cccc(Br)n2)c2ccc(-c3cnc(C)nc3)cc12 [Compound 1, danicopan]
IC50 value (APH): 0.235 µg/mL (≈ 0.405 µM)

CC(=O)c1nn(CC(=O)N2[C@H]3C[C@]4(C[C@@H]24)Cn2cc(nn2)COCc2ccc(Br)nc2NC3=O)c2ccc(-c3cnc(C)nc3)cc12 [Compound 2]
cell killing in the mHam assay induced by S1 and S2 (TF1PIGAnull cells): inhibited; also recorded: prevented cell death | C5b-9 deposition induced by S1 and S2 [1]: inhibit | S1-induced C5b-9 deposition [1]: blocking; also recorded: completely blocked | S2-induced C5b-9 deposition [1]: blocking | C3c deposition induced by S1 and S2 [2]: more potent in blocking C3c deposition; also recorded: inhibit | S1-induced C3c deposition [2]: blocking; also recorded: completely blocked | S2-induced C3c deposition [2]: blocking

Heparan sulfate sodium salt
binding of S1 subunit to TF1PIGAnull cells ([3]; listed as HS): significantly blocked | binding of S1 subunit to TF1PIGAnull cells [3]: completely blocked | binding of S2 subunit to TF1PIGAnull cells ([3]; listed as HS): significantly blocked | binding of S2 subunit to TF1PIGAnull cells [3]: completely blocked
